According to paper PMC12406203 (Journal of Medicinal Chemistry, 2025):
Where “and” joins values, the source holds several entries; their conditions need not be identical. Equal values may be shown once.

How the values were obtained:
[1] = system: CDK9
[2] = system: RIOK2
[3] = system: CSNK1D
[4] = system: BTK
[5] = system: LPS-treated mice; assay: Morris water maze task, LPS model of neuroinflammation; type: in vivo; details: 10 mg/kg i.p.; for escape latency, acquisition phase (days 1–6) of MWM: from day 2 (94) or day 3 (95) to day 6, vs LPS alone
Method: The compounds were administered for 10 consecutive days, and on the last 6 days of their administration, LPS was also administered intraperitoneally 5 h before the test compounds. On these 6 days, the acquisition phase of the MWM task was performed. One day later, the retention, drug-off trial of the MWM task was carried out.
In the LPS model adult male C57BL/6J mice (Animal Breeding Farm of the Faculty of Pharmacy, Jagiellonian University Medical College) of similar weight and age were used. […] The mice had unlimited access to food and water prior to the experiment. Specified conditions for the maintenance of mice were ensured throughout the experiment, including tree bedding (Transwior, Poland) and cage enrichment (tunnels, nesting material, wooden igloos, etc.). For behavioral tests, the mice were selected randomly; each group consisted of 7–10 mice. […] After in vivo tests, the animals were immediately euthanized, and their tissues were collected and stored for further ex vivo testing.
LPS (Lipopolysaccharide from Escherichia coli O111:B4, Sigma-Aldrich, Poland) was used to induce neuroinflammation in mice. […] They were administered intraperitoneally (i.p.) 60 min before the acquisition trial of the PA, NOR, and MWM tasks. […] In the rotarod, locomotor activity, and MWM tests, only one dose effective in the scopolamine model of amnesia was evaluated.
The Morris water maze is a circular, plastic, and gray-painted pool (120 cm in diameter and 60 cm in height), filled with water (up to about 48 cm below the edge to prevent an animal from jumping out), maintained at 23 ± 1 °C. The pool was divided into four equal quadrants (compass locations: NE, NW, SE, SW) by a computerized video tracking system (SMART, ver. 3.0; Panlab, Spain). An escape platform (11 cm in diameter and 47 cm in height) at a fixed location (the center of the NW quadrant, i.e., the target quadrant) was made of transparent Plexiglas, being invisible to the swimming animal, and was immersed 1 cm under the surface of water. The maze was lighted with an intensity of 45 lx. […] The time taken to reach the hidden platform (escape latency) on days 1–6 was recorded for each mouse and analyzed. Each animal was released from a different starting point and was allowed to swim for 60 s. […] On the seventh day (a drug-off trial conducted 24 h after the last training trial), the platform was removed from the pool, and a probe trial was performed (without drug treatmentassessment of memory retention).

[6] = system: ABL1(T315I)-phosphorylated
[7] = system: SNARK
[8] = system: DYRK1B
[9] = system: ZAP70
[10] = system: INSR
[11] = system: scopolamine-induced cognitive deficits in mice; assay: Novel object recognition task, scopolamine-induced amnesia; type: in vivo; details: for efficacy in NOR task: 5 mg/kg i.p., scopolamine model; for preference for the novel object (NOR task): 10 mg/kg i.p., vs mice treated with scopolamine alone
From the text: In the scopolamine model, the PA and NOR tasks were used for dose selection for further testing.
The mice had unlimited access to food and water prior to the experiment. Specified conditions for the maintenance of mice were ensured throughout the experiment, including tree bedding (Transwior, Poland) and cage enrichment (tunnels, nesting material, wooden igloos, etc.). For behavioral tests, the mice were selected randomly; each group consisted of 7–10 mice. […] The procedures for maintenance and treatment of laboratory animals were approved by the first Local Ethics Committee in Krakow (Approval No. 645/2022, 760/2023, and 829/2024 and the treatment of animals was in full accordance with ethical standards laid down in respective Polish and EU regulations (Directive 2010/63/EU).
Scopolamine hydrobromide (Sigma-Aldrich, Poland) at the dose of 1 mg/kg was used to induce learning and memory deficits. For the in vivo tests, scopolamine was prepared in distilled water (Polfa Kutno, Poland) and was administered subcutaneously (s.c.) 30 min before behavioral tests during the acquisition (training) trial of PA and NOR tasks. […] They were administered intraperitoneally (i.p.) 60 min before the acquisition trial of the PA, NOR, and MWM tasks.
The experiment was conducted in opaque black boxes with dimensions of 50 × 50 × 50 cm. The 3 day procedure consists of habituation to the test arena (without any objects) for 10 min on the first day (T0), a training trial (T1), and a testing trial (T2) separated by a 24 h intertrial interval. During T1 (familiarization trial), two identical objects (A and B) were presented in the opposite corners of the arena, approximately 5 cm from its walls. During T2 (recognition trial), one of the objects (B) was replaced by a novel object (C), so that the animals were presented with A (familiar) and C (novel) objects. Both T1 and T2 trials lasted for 10 min, and after each trial, the animals returned to their home cages. White plastic round containers (height 5 cm, diameter 5 cm) attached to the ground with double-sided tape were used as the A, B objects, and green cuboids of similar height were used as object C. The objects were stable enough so that the animals could not displace them. The sequence of presentations and the location of the objects were randomly assigned to each mouse. The animals explored the objects by looking, licking, sniffing, or touching them while sniffing, but not when leaning against, standing, or sitting on the objects. Any mouse exploring the two objects for less than 5 s within the 10 min duration of T1 or T2 was eliminated from the study. An experimenter, blind to the drug treatment, measured the exploration time of the objects.

[12] = system: SRPK3
[13] = system: GSK3B
[14] = molecular target: human p38α MAPK (Homo sapiens, UniProt Q16539); assay: biochemical
[15] = system: MET
[16] = system: BRAF(V600E)
[17] = molecular target: T1, hBChE in SH-SY5Y cells (Homo sapiens, UniProt P06276); assay: hBChE inhibition assay in SH-SY5Y cells; type: cell-based; details: 10 and 1 μM; compared with control ethopropazine
T1 construct: endogenous in cells; host or cells: SH-SY5Y human neuroblastoma cells
Method: hBChE activity in live whole SH-SY5Y cells was measured by the modified procedure of Onder and colleagues. Briefly, after centrifugation, the complete medium was removed and cells were suspended in PBS warmed to 37 °C. 50 μL of this suspension was added to a 96-well plate so that each well contained approximately 360,000 cells. 81 μL of 0.5 mM 5,5′-dithiobis (2-nitrobenzoic acid) in 0.1 M potassium phosphate buffer (pH 7.0) was added, followed by 2 μL of DMSO solutions of compounds 94, 95, or ethopropazine (positive control). The reaction was initiated by the addition of 67 μL of 1 mM acetylthiocholine. The total reagent volume in each well was 200 μL. The microplate was covered with a lid to minimize evaporation while absorbance at 412 nm was recorded over a period of 120 min with a 30 s interval on a Tecan Spark microplate reader (Tecan Austria GmbH, Salzburg, Austria) set to 24 °C. Autohydrolysis rates of butyrylthiocholine were measured in wells that contained all reagents + PBS with no cells. The residual activity of hBChE was then calculated by the protocol described above.

[18] = molecular target: hBChE
[19] = system: ULK2
[20] = system: KIT(V559D,T670I)
[21] = system: KIT
[22] = system: PLK3
[23] = system: JNK2
[24] = system: MARK3
[25] = system: HepG2 cells; assay: MTS metabolic activity (cytotoxicity); type: cell-based, human; details: HepG2, MTS assay, 24 h, concentrations of 5 μM or less
Method: (§1) The human hepatocellular carcinoma HepG2 and human neuroblastoma SH-SY5Y cell lines were purchased from American Type Culture Collection (Manassas, VA, USA). The murine microglia BV2 cells were a generous gift from Dr. Biljana Božić Nedeljković (University of Belgrade, Belgrade, Serbia). Cells were cultured in Advanced Dulbecco’s modified Eagle’s medium (Gibco, Thermo Fisher Scientific, Waltham, MA, USA) supplemented with 10% fetal bovine serum (FBS, Gibco), 2 mM L-glutamine, 50 U/mL penicillin and 50 μg/mL streptomycin (Sigma, St. Louis, MO, USA) in a humidified atmosphere of 95% air and 5% CO2 at 37 °C, and grown to 80% confluence. Prior to cell treatment, complete medium was replaced with serum-free medium. Compounds 94 and 95 were prepared as a stock solution of 30 mM in DMSO and were used at concentrations of 1–100 μM.
(§2) BV2 cells (5 × 10^3/well) and HepG2 and SH-SY5Y cells (1 × 10^4/well) were seeded in 96-well plates and assessed by MTS ([3-(4,5-dimethylthiazol-2-yl)-5-(3-carboxymethoxyphenyl)-2-(4-sulfophenyl)-2H tetrazolium, inner salt) assay for their response to compounds 94 and 95. Cells were treated with increasing concentrations of compounds (1–100 μM) in serum-free medium, and metabolic activity was assessed after 24 h using the CellTiter 96 Aqueous One Solution Cell Proliferation Assay (Promega, Madison, WI, USA), in accordance with the manufacturer’s instructions. Absorbance was measured with an automatic microplate reader (Tecan Safire^2, Switzerland) at a wavelength of 492 nm. Results are presented as a percentage of the control (DMSO).

[26] = system: SH-SY5Y cells; assay: MTS metabolic activity (cytotoxicity); type: cell-based, human; details: MTS assay, 24 h, concentrations of 5 μM or less
Method: as §1, §2

[27] = system: FAK
[28] = system: MAPKAPK2
[29] = system: PDGFRA
[30] = system: CDK7
[31] = system: CSNK1G2
[32] = p38α MAPK IC50, IC50 expressed as concentration in ng/mL
[33] = p38α MAPK IC50 ± SEM, two independent experiments, each in triplicate

Chain of human p38α MAPK (Q16539 whole entry): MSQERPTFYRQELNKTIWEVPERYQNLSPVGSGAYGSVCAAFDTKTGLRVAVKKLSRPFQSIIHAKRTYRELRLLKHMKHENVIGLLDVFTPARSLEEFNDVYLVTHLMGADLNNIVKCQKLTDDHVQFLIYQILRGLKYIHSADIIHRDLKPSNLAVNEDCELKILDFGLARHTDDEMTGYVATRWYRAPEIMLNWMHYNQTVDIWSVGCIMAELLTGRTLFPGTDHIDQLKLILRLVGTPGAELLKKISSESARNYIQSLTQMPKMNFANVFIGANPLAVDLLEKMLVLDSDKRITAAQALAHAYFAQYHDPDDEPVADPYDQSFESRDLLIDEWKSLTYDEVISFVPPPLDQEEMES
T1 sequence (P06276 29-602): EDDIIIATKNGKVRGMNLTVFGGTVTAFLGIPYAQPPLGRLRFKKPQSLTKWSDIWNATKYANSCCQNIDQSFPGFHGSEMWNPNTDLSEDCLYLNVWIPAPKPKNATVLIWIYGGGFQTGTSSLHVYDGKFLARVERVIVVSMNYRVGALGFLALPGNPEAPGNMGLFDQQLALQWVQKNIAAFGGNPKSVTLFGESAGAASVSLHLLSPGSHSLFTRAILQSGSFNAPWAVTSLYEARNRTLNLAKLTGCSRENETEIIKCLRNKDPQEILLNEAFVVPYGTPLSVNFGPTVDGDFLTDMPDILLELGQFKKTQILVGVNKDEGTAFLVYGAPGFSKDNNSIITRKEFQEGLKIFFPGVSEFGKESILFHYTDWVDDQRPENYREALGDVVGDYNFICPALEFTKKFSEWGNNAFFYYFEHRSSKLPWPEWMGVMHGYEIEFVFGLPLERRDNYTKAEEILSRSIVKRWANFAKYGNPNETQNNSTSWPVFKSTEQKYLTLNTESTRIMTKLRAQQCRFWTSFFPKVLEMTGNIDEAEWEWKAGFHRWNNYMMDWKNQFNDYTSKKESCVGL

CC(C)Cn1ncc2cc(Cc3ccc(F)cc3F)c(C(=O)NCCN(C)C)cc21 [Compound 94, 5-(2,4-Difluorobenzyl)-N-(2-(dimethylamino)ethyl)-1-isobutyl-1H-indazole-6-carboxamide]
RA @ 1000nM [1]: 100% | RA @ 10000nM [1]: 100% | RA @ 1000nM [2]: 85% | RA @ 10000nM [2]: 92% | RA @ 1000nM [3]: 86% | RA @ 10000nM [3]: 79% | RA @ 1000nM [4]: 100% | RA @ 10000nM [4]: 100% | escape latency, acquisition phase (days 1–6) of MWM [5]: statistically significant decrease in escape latency from day 2 | RA @ 1000nM [6]: 93% | RA @ 10000nM [6]: 90% | RA @ 1000nM [7]: 100% | RA @ 10000nM [7]: 93% | RA @ 1000nM [8]: 100% | RA @ 10000nM [8]: 85% | RA @ 1000nM [9]: 100% | RA @ 10000nM [9]: 79% | RA @ 1000nM [10]: 81% | RA @ 10000nM [10]: 90% | efficacy in NOR task [11]: statistically ineffective | preference for the novel object (NOR task) [11]: statistically significant preference for the novel object | RA @ 1000nM [12]: 77% | RA @ 10000nM [12]: 100% | RA @ 1000nM [13]: 91% | RA @ 10000nM [13]: 97% | IC50 [14, 32]: 376 nM | IC50 [14, 33]: 377 ± 123 nM | RA @ 1000nM [15]: 96% | RA @ 10000nM [15]: 100% | RA @ 1000nM [16]: 100% | RA @ 10000nM [16]: 100% | hBChE inhibition in SH-SY5Y human neuroblastoma cell line [17]: outperformed the control ethopropazine | IC50 [18]: 652 nM and 270 ng/mL | RA @ 1000nM [19]: 71% | RA @ 10000nM [19]: 88% | RA @ 1000nM [20]: 100% | RA @ 10000nM [20]: 100% | RA @ 1000nM [21]: 100% | RA @ 10000nM [21]: 100% | RA @ 1000nM [22]: 100% | RA @ 10000nM [22]: 97% | RA @ 1000nM [23]: 52% | RA @ 10000nM [23]: 8.3% | RA @ 1000nM [24]: 100% | RA @ 10000nM [24]: 100% | cell viability [25]: did not affect cell viability | cell viability [26]: did not affect cell viability | RA @ 1000nM [27]: 96% | RA @ 10000nM [27]: 89% | RA @ 1000nM [28]: 100% | RA @ 10000nM [28]: 84% | RA @ 1000nM [29]: 96% | RA @ 10000nM [29]: 76% | RA @ 1000nM [30]: 79% | RA @ 10000nM [30]: 86% | RA @ 1000nM [31]: 96% | RA @ 10000nM [31]: 93%

CN(C)CCNC(=O)c1cc2c(cnn2CC2CCCCC2)cc1Cc1ccc(F)cc1F [Compound 95, 1-(Cyclohexylmethyl)-5-(2,4-difluorobenzyl)-N-(2-(dimethylamino)ethyl)-1H-indazole-6-carboxamide]
RA @ 1000nM [1]: 100% | RA @ 10000nM [1]: 93% | RA @ 1000nM [2]: 88% | RA @ 10000nM [2]: 81% | RA @ 1000nM [3]: 93% | RA @ 10000nM [3]: 84% | RA @ 1000nM [4]: 100% | RA @ 10000nM [4]: 100% | escape latency, acquisition phase (days 1–6) of MWM [5]: statistically significant decrease in escape latency | latency to NW zone entry (MWM day 7, drug-off) ([5]; vs LPS-treated control, p < 0.05): statistically significant difference | RA @ 1000nM [6]: 72% | RA @ 10000nM [6]: 91% | RA @ 1000nM [7]: 93% | RA @ 10000nM [7]: 92% | RA @ 1000nM [8]: 95% | RA @ 10000nM [8]: 100% | RA @ 1000nM [9]: 100% | RA @ 10000nM [9]: 100% | RA @ 1000nM [10]: 84% | RA @ 10000nM [10]: 81% | efficacy in NOR task [11]: statistically ineffective | preference for the novel object (NOR task) [11]: statistically significant preference for the novel object | RA @ 1000nM [12]: 92% | RA @ 10000nM [12]: 99% | RA @ 1000nM [13]: 100% | RA @ 10000nM [13]: 80% | IC50 [14, 32]: 191 nM | IC50 [14, 33]: 191 ± 21 nM | RA @ 1000nM [15]: 100% | RA @ 10000nM [15]: 100% | RA @ 1000nM [16]: 98% | RA @ 10000nM [16]: 100% | hBChE inhibition in SH-SY5Y human neuroblastoma cell line [17]: outperformed the control ethopropazine | IC50 [18]: 772 nM and 350 ng/mL | RA @ 1000nM [19]: 77% | RA @ 10000nM [19]: 75% | RA @ 1000nM [20]: 47% | RA @ 10000nM [20]: 94% | RA @ 1000nM [21]: 100% | RA @ 10000nM [21]: 100% | RA @ 1000nM [22]: 88% | RA @ 10000nM [22]: 100% | RA @ 1000nM [23]: 44% | RA @ 10000nM [23]: 3.8% | RA @ 1000nM [24]: 79% | RA @ 10000nM [24]: 86% | cell viability [25]: did not affect cell viability | cell viability [26]: did not affect cell viability | RA @ 1000nM [27]: 92% | RA @ 10000nM [27]: 94% | RA @ 1000nM [28]: 100% | RA @ 10000nM [28]: 100% | RA @ 1000nM [29]: 92% | RA @ 10000nM [29]: 92% | RA @ 1000nM [30]: 88% | RA @ 10000nM [30]: 77% | RA @ 1000nM [31]: 100% | RA @ 10000nM [31]: 98%
